Laboratory results reported in patent US11976083B2, “Inhibitors of peptidylarginine deiminases” (Gilead Sciences, Inc., priority 2020, dated 2024).

Molecular target: T1, human PAD4 (Homo sapiens, UniProt Q9UM07)
T1 construct: human PAD4 (NM_012387), A2-P663, was PCR amplified; His-SUMO (N, cleaved yes); made in house; host or cells: E. coli BL21(DE3)
Experiment: In vitro PAD4 BAEE biochemical assay
Conditions: BAEE substrate 3 mM, 5 nM PAD4, 2 mM calcium chloride; geometric mean of multiple experiments
Summary of the method: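 Ammonia produced by BAEE deimination (3 mM substrate, 2 h, 25 °C) was read as fluorescent isoindole after o-phthalaldehyde/DTT derivatization, ex 405 nm/em 535 nm. Human PAD4 at 5 nM final, 2 mM calcium, pH 7.6 MOPS; compound preincubated 30 min. IC50s, normalized to BB-Cl-Amidine and DMSO controls, were geometric-mean averaged.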

T1 sequence (Q9UM07 2-663): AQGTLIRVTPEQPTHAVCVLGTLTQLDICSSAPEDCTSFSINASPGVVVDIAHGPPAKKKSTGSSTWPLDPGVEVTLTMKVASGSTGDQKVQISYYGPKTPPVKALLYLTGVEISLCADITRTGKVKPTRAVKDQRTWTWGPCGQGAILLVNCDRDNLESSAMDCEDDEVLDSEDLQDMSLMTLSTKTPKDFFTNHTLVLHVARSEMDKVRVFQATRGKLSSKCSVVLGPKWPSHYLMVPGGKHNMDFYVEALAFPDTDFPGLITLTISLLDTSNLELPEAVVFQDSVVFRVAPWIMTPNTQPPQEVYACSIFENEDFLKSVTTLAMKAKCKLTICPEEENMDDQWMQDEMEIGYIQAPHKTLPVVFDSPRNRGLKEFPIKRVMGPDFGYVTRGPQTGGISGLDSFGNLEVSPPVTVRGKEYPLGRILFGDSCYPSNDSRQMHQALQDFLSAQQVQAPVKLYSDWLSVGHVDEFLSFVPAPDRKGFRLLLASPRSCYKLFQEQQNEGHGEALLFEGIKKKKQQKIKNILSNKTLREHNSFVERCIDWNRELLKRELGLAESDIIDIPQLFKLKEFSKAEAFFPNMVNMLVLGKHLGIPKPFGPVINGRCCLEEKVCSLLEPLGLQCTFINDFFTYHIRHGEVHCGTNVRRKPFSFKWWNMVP

SMILES	IC50 [nM]
COc1cc(C(=O)N2[C@H]3CC[C@@H]2[C@H](N)C3)cc2nc(-c3cc4ccc5cc4n3CCCCCCC(=O)Nc3ccccc3-5)n(C)c12 [Example 94, 17-[5-[(1~{R},2~{R},4~{S})-2-amino-7-azabicyclo[2.2.1]heptane-7-carbonyl]-7-methoxy-1-methyl-benzimidazol-2-yl]-8,16-diazatetracyclo[14.5.2.0^{2,7}.0^{19,23}] tricosa-1(22),2,4,6,17,19(23),20-heptaen-9-one]	165
COc1cc(C(=O)N2[C@H]3CC[C@@H]2[C@H](N)C3)cc2nc(-c3cc4ccc5nc4n3CCCCCCC(=O)Nc3cnccc3-5)n(C)c12 [Example 95, 17-[5-[(1~{R},2~{R},4~{S})-2-amino-7-azabicyclo[2.2.1]heptane-7-carbonyl]-7-methoxy-1-methyl-benzimidazol-2-yl]-5,8,16,22-tetrazatetracyclo[14.5.2.0^{2,7}.0^{19,23}] tricosa-1(22),2,4,6,17,19(23),20-heptaen-9-one]	86
COc1cc(C(=O)N2[C@H]3CC[C@@H]2[C@H](N)C3)cc2nc(-c3cc4ccc5nc4n3CCCCCCNc3ncccc3-5)n(C)c12 [Example 96, [(1˜{R},2˜{R},4˜{S})-2-amino-7-azabicyclo[2.2.1]heptan-7-yl]-[7-methoxy-1-methyl-2-(6,8,15,21-tetrazatetracyclo[13.5.2.0^{2,7}.0^{18,22}]docosa-1(21),2,4,6,16,18(22),19-heptaen-16-yl)benzimidazol-5-yl]methanone]	3130
COc1cc(C(=O)N2[C@H]3CC[C@@H]2[C@H](N)C3)cc2nc(-c3cc4ccc5cc4n3CCCCCCNC(=O)c3ccccc3-5)n(C)c12 [Example 97, 17-[5-[(1~{R},2~{R},4~{S})-2-amino-7-azabicyclo[2.2.1]heptane-7-carbonyl]-7-methoxy-1-methyl-benzimidazol-2-yl]-9,16-diazatetracyclo[14.5.2.0^{2,7}.0^{19,23}] tricosa-1(22),2,4,6,17,19(23),20-heptaen-8-one]	57
COc1cc(C(=O)N2[C@H]3CC[C@@H]2[C@H](N)C3)cc2nc(-c3cc4ccc5cc4n3CCCCCCNC(=O)c3ncccc3-5)n(C)c12 [Example 98, 17-[5-[(1~{R},2~{R},4~{S})-2-amino-7-azabicyclo[2.2.1]heptane-7-carbonyl]-7-methoxy-1-methyl-benzimidazol-2-yl]-6,9,16-triazatetracyclo[14.5.2.0^{2,7}.0^{19,23}] tricosa-1(22),2,4,6,17,19(23),20-heptaen-8-one]	122
COc1cc(C(=O)N2[C@H]3CC[C@@H]2[C@H](N)C3)cc2nc(-c3cc4ccc5cc4n3CCCCCCC(C)(C)C(=O)Nc3ncccc3-5)n(C)c12 [Example 99, 18-[5-[(1~{R},2~{R},4~{S})-2-amino-7-azabicyclo[2.2.1]heptane-7-carbonyl]-7-methoxy-1-methyl-benzimidazol-2-yl]-10,10-dimethyl-6,8,17-triazatetracyclo[15.5.2.0^{2,7}.0^{20,24}] tetracosa-1(23),2(7),3,5,18,20(24),21-heptaen-9-one]	111
COc1cc(C(=O)N2[C@H]3CC[C@@H]2[C@H](N)C3)cc2nc(-c3cc4ccc5cc4n3CCCCCCC(C)(C)C(=O)Nc3ccccc3-5)n(C)c12 [Example 100, 18-[5-[(1~{R},2~{R},4~{S})-2-amino-7-azabicyclo[2.2.1]heptane-7-carbonyl]-7-methoxy-1-methyl-benzimidazol-2-yl]-10,10-dimethyl-8,17-diazatetracyclo[15.5.2.0^{2,7}.0^{20,24}] tetracosa-1(23),2(7),3,5,18,20(24),21-heptaen-9-one]	833
COc1cc(C(=O)N2[C@H]3CC[C@@H]2[C@H](N)C3)cc2nc(-c3cc4ccc5cc4n3CCCC3CCN(CC3)C(=O)c3ccccc3-5)n(C)c12 [Example 101, 17-[5-[(1~{R},2~{R},4~{S})-2-amino-7-azabicyclo[2.2.1]heptane-7-carbonyl]-7-methoxy-1-methyl-benzimidazol-2-yl]-9,16-diazapentacyclo[14.5.2.2^{9,12}.0^{2,7}.0^ {19,23}]pentacosa-1(22),2,4,6,17,19(23),20-heptaen-8-one]	7450
COc1cc(C(=O)N2[C@H]3CC[C@@H]2[C@H](N)C3)cc2nc(-c3cc4ccc5nc4n3CCCCCC(C)(C)C(=O)N[C@@H]5C)n(C)c12 [Example 102, (10~{R})-16-[5-[(1~{R},2~{R},4~{S})-2-amino-7-azabicyclo[2.2.1]heptane-7-carbonyl]-7-methoxy-1-methyl-benzimidazol-2-yl]-7,7,10-trimethyl-1,9,18-triazatricyclo[9.5.2.0^{14,17}]octadeca-11(18),12,14(17),15-tetraen-8-one]	45
CCCO[C@@H]1CCN(C(=O)c2cc(OC)c3c(c2)nc(-c2cc4ccc5nc4n2CCCCCCC(C)(C)C(=O)N[C@@H]5C)n3C)C[C@@H]1N [Example 103, (11~{R})-17-[5-[(3~{S},4~{R})-3-amino-4-propoxy-piperidine-1-carbonyl]-7-methoxy-1-methyl-benzimidazol-2-yl]-8,8,11-trimethyl-1,10,19-triazatricyclo[10.5.2.0^{15,18}]nonadeca-12(19),13,15(18),16-tetraen-9-one]	166
CCO[C@@H]1CCN(C(=O)c2cc(OC)c3c(c2)nc(-c2cc4ccc5nc4n2CCCCCCC(C)(C)C(=O)N[C@@H]5C)n3C)C[C@@H]1N [Example 104, (11~{R})-17-[5-[(3~{S},4~{R})-3-amino-4-ethoxy-piperidine-1-carbonyl]-7-methoxy-1-methyl-benzimidazol-2-yl]-8,8,11-trimethyl-1,10,19-triazatricyclo[10.5.2.0^{15,18}]nonadeca-12(19),13,15(18),16-tetraen-9-one]	115
CN[C@H]1CN(C(=O)c2cc(OC)c3c(c2)nc(-c2cc4ccc5nc4n2CCCCCCC(C)(C)C(=O)N[C@@H]5C)n3C)CC[C@H]1OC [Example 105, (11~{R})-17-[7-methoxy-5-[(3~{S},4~{R})-4-methoxy-3-(methylamino)piperidine-1-carbonyl]-1-methyl-benzimidazol-2-yl]-8,8,11-trimethyl-1,10,19-triazatricyclo[10.5.2.0^{15,18}]nonadeca-12(19),13,15(18),16-tetraen-9-one]	27400
COc1cc(C(=O)N2CCC[C@@H](N)C2)cc2nc(-c3cc4ccc5nc4n3CCCCCC(C)(C)C(=O)N[C@@H]5C)c(C)n12 [Example 106, (10~{R})-16-[7-[(3~{R})-3-aminopiperidine-1-carbonyl]-5-methoxy-3-methyl-imidazo[1,2-a]pyridin-2-yl]-7,7,10-trimethyl-1,9,18-triazatricyclo[9.5.2.0^{14,17}]octadeca-11(18),12,14(17),15-tetraen-8-one]	201
COc1cc(C(=O)N2CCC[C@@H](N)C2)cc2nc(-c3cc4ccc5nc4n3CCCCCCCCC(=O)N3CCC[C@H]53)n(C)c12 [Example 107, (2~{R})-17-[5-[(3~{R})-3-aminopiperidine-1-carbonyl]-7-methoxy-1-methyl-benzimidazol-2-yl]-6,16,22-triazatetracyclo[14.5.2.0^{2,6}.0^{19,23}] tricosa-1(22),17,19(23),20-tetraen-7-one]	24
COc1cc(C(=O)N2CCC[C@@H](N)C2)cc2nc(-c3cc4ccc5nc4n3CCCCOCCC(=O)N3CCC[C@H]53)n(C)c12 [Example 108, (2~{R})-16-[5-[(3~{R})-3-aminopiperidine-1-carbonyl]-7-methoxy-1-methyl-benzimidazol-2-yl]-10-oxa-6,15,21-triazatetracyclo[13.5.2.0^{2,6}.0^{18,22}] docosa-1(21),16,18(22),19-tetraen-7-one]	150
COc1cc(C(=O)N2CCC[C@@H](N)C2)cc2nc(-c3cc4ccc5nc4n3CCCCOCC(=O)N3CCC[C@H]53)n(C)c12 [Example 109, (2~{R})-15-[5-[(3~{R})-3-aminopiperidine-1-carbonyl]-7-methoxy-1-methyl-benzimidazol-2-yl]-9-oxa-6,14,20-triazatetracyclo[12.5.2.0^{2,6}.0^{17,21}] henicosa-1(20),15,17(21),18-tetraen-7-one]	303
COc1cc(C(=O)N2CCC[C@@H](N)C2)cc2nc(-c3cc4ccc5nc4n3CCCCCC[C@@H](C)C(=O)N[C@@H]5C)n(C)c12 [Example 110, (8~{R},11~{R})-17-[5-[(3~{R})-3-aminopiperidine-1-carbonyl]-7-methoxy-1-methyl-benzimidazol-2-yl]-8,11-dimethyl-1,10,19-triazatricyclo[10.5.2.0^{15,18}]nonadeca-12(19),13,15(18),16-tetraen-9-one]	70
COc1cc(C(=O)N2CCC[C@@H](N)C2)cc2nc(-c3cc4ccc5nc4n3CCCCCC[C@H](C)C(=O)N[C@@H]5C)n(C)c12 [Example 111, (8~{S},11~{R})-17-[5-[(3~{R})-3-aminopiperidine-1-carbonyl]-7-methoxy-1-methyl-benzimidazol-2-yl]-8,11-dimethyl-1,10,19-triazatricyclo[10.5.2.0^{15,18}]nonadeca-12(19),13,15(18),16-tetraen-9-one]	49
COc1cc(C(=O)N2CCC[C@@H](N)C2)cc2nc(-c3cc4ccc5nc4n3CCCCCC[C@@H]3CCN(C3=O)[C@@H]5C)n(C)c12 [Example 112, (2~{R},6~{R})-14-[5-[(3~{R})-3-aminopiperidine-1-carbonyl]-7-methoxy-1-methyl-benzimidazol-2-yl]-2-methyl-3,13,19-triazatetracyclo[11.5.2.1^{3,6}.0^{16,20}] henicosa-1(19),14,16(20),17-tetraen-21-one]	81
COc1cc(C(=O)N2CCC[C@@H](N)C2)cc2nc(-c3cc4ccc5cc4n3CCCCCC[C@@H]3CCN(C3=O)[C@@H]5C)n(C)c12 [Example 113, (2~{R},6~{R})-14-[5-[(3~{R})-3-aminopiperidine-1-carbonyl]-7-methoxy-1-methyl-benzimidazol-2-yl]-2-methyl-3,13-diazatetracyclo[11.5.2.1^{3,6}.0^{16,20}] henicosa-1(19),14,16(20),17-tetraen-21-one]	302
